ChEMBL document CHEMBL5316331, “Modulating Cytotoxicity with Lego-like Chemistry: Upgrading Mitochondriotropic Antioxidants with Prototypical Cationic Carrier Bricks” (J Med Chem, 2023)
The source made the active and inactive calls. The calls are words filed in the database; no cut-off is given here.

Tests used:
[1] = Cytotoxicity against human SH-SY5Y cells assessed as cell viability incubated for 24 hrs; assay type: toxicity, cell-based; conditions: read-out: Activity
[2] = Cytotoxicity against human HepG2 cells assessed as cell viability incubated for 24 hrs; assay type: toxicity, cell-based; conditions: read-out: Activity
[3] = tested on: SH-SY5Y; test: Cytotoxicity against human SH-SY5Y cells incubated for 48 hrs; assay type: toxicity, cell-based
[4] = tested on: SH-SY5Y; test: Cytotoxicity against human SH-SY5Y cells assessed as increase in cell viability at 10 to 100 uM incubated for 24 hrs; assay type: toxicity, cell-based; conditions: dose 10-100 µM
[5] = tested on: HepG2; test: Cytotoxicity against human HepG2 cells assessed as increase in cell viability at 10 to 100 uM incubated for 24 hrs; assay type: toxicity, cell-based; conditions: hepg2, 24 h, dose 10-100 µM
[6] = Dissociation constant, pKa of the compound by UV-vis spectrophotometric analysis; assay type: physicochemical
[7] = Drug uptake in C57BL/6J mouse liver mitochondria at 5 uM in presence of rotenone by UPLC analysis; assay type: ADME
[8] = Drug uptake in C57BL/6J mouse liver mitochondria at 5 uM in presence of succinate by UPLC analysis; assay type: ADME
[9] = Drug uptake in C57BL/6J mouse liver mitochondria at 5 uM in presence of FCCP by UPLC analysis; assay type: ADME
[10] = tested on: SH-SY5Y; test: Antioxidant activity against human SH-SY5Y cells assessed as increase in basal respiration at 10 uM incubated for 24 hrs followed by addition of oligomycin/FCCP/antimycin A /rotenone by Cell Mito stress assay based seahorse XF96 flux analyzer; assay type: functional
[11] = tested on: SH-SY5Y; test: Antioxidant activity against human SH-SY5Y cells assessed as increase in maximal respiration at 10 uM incubated for 24 hrs followed by addition of oligomycin/FCCP/antimycin A /rotenone by Cell Mito stress assay based seahorse XF96 flux analyzer; assay type: functional
[12] = tested on: SH-SY5Y; test: Antioxidant activity against human SH-SY5Y cells assessed as increase in ATP production-linked respiration at 10 uM incubated for 24 hrs followed by addition of oligomycin/FCCP/antimycin A /rotenone by Cell Mito stress assay based seahorse XF96 flux analyzer; assay type: functional
[13] = tested on: SH-SY5Y; test: Antioxidant activity against human SH-SY5Y cells assessed as increase in spare respiratory capacity at 10 uM incubated for 24 hrs followed by addition of oligomycin/FCCP/antimycin A /rotenone by Cell Mito stress assay based seahorse XF96 flux analyzer; assay type: functional
[14] = tested on: SH-SY5Y; test: Antioxidant activity against human SH-SY5Y cells assessed as increase in basal ECAR at 10 uM incubated for 24 hrs followed by addition of oligomycin/FCCP/antimycin A /rotenone by Cell Mito stress assay based seahorse XF96 flux analyzer; assay type: functional
[15] = tested on: SH-SY5Y; test: Antioxidant activity against human SH-SY5Y cells assessed as increase in basal OCR at 10 uM incubated for 24 hrs followed by addition of oligomycin/FCCP/antimycin A /rotenone by Cell Mito stress assay based seahorse XF96 flux analyzer; assay type: functional
[16] = tested on: SH-SY5Y; test: Induction of mitochondrial membrane polarization in human SH-SY5Y cells at 10 uM incubated for 24 hrs by JC-1 staining based fluorescence assay; assay type: functional
[17] = tested on: SH-SY5Y; test: Induction of mitochondrial membrane polarization in human SH-SY5Y cells at 50 uM incubated for 24 hrs by JC-1 staining based fluorescence assay; assay type: functional
[18] = tested on: SH-SY5Y; test: Effect on cell mitochondrial mass in human SH-SY5Y cells assessed as reduction on mitochondrial mass at 50 uM incubated for 24 hrs by mito-tracker green dye based flow cytometry; assay type: functional; design: scale not given: the % may be the effect or the level left
[19] = tested on: SH-SY5Y; test: Effect on cell death pathway in human SH-SY5Y cells assessed as decrease in early apoptotic cells at 10 uM incubated for 24 hrs by Annexin V-FITC/PI staining based microscopy; assay type: functional
[20] = tested on: SH-SY5Y; test: Effect on cell death pathway in human SH-SY5Y cells assessed as decrease in late apoptotic cells at 10 uM incubated for 24 hrs by Annexin V-FITC/PI staining based microscopy; assay type: functional
[21] = tested on: SH-SY5Y; test: Effect on cell death pathway in human SH-SY5Y cells assessed as decrease in necrotic cells at 10 uM incubated for 24 hrs by Annexin V-FITC/PI staining based microscopy; assay type: functional
[22] = tested on: SH-SY5Y; test: Effect on cell death pathway in human SH-SY5Y cells assessed as decrease in early apoptotic cells at 50 uM incubated for 24 hrs by Annexin V-FITC/PI staining based microscopy; assay type: functional
[23] = tested on: SH-SY5Y; test: Effect on cell death pathway in human SH-SY5Y cells assessed as decrease in late apoptotic cells at 50 uM incubated for 24 hrs by Annexin V-FITC/PI staining based microscopy; assay type: functional
[24] = tested on: SH-SY5Y; test: Effect on cell death pathway in human SH-SY5Y cells assessed as decrease in necrotic cells at 50 uM incubated for 24 hrs by Annexin V-FITC/PI staining based microscopy; assay type: functional
[25] = tested on: SH-SY5Y; test: Neuroprotective activity against tBHP-induced human SH-SY5Y cells assessed as increase in cell viability at 10 uM preincubated for 30 mins followed by t-BHP addition at 15 uM and measured after 24 hrs by neutral dye uptake assay relative to control; assay type: functional; conditions: time 24.5 hrs
[26] = tested on: SH-SY5Y; test: Neuroprotective activity against tBHP-induced human SH-SY5Y cells assessed as increase in cell viability at 50 uM preincubated for 30 mins followed by t-BHP addition at 15 uM and measured after 24 hrs by neutral dye uptake assay relative to control; assay type: functional; conditions: time 24.5 hrs
[27] = tested on: SH-SY5Y; test: Neuroprotective activity against tBHP-induced human SH-SY5Y cells assessed as increase in cell viability at 50 uM preincubated for 30 mins followed by t-BHP addition at 30 uM and measured after 24 hrs by neutral dye uptake assay relative to control; assay type: functional; conditions: time 24.5 hrs
[28] = tested on: SH-SY5Y; test: Neuroprotective activity against tBHP-induced human SH-SY5Y cells assessed as increase in cell viability at 10 uM preincubated for 30 mins followed by t-BHP addition and measured after 24 hrs by SRB assay; assay type: functional, cell-based; conditions: time 24.5 hrs
[29] = tested on: SH-SY5Y; test: Neuroprotective activity against tBHP-induced human SH-SY5Y cells assessed as increase in cell viability at 50 uM preincubated for 30 mins followed by t-BHP addition and measured after 24 hrs by SRB assay; assay type: functional, cell-based; conditions: time 24.5 hrs
[30] = tested on: SH-SY5Y; test: Neuroprotective activity against H2O2-induced human SH-SY5Y cells assessed as increase in cell viability at 10 uM preincubated for 30 mins followed by H2O2 addition and measured after 24 hrs by SRB assay; assay type: functional, cell-based; conditions: time 24.5 hrs
[31] = tested on: SH-SY5Y; test: Neuroprotective activity against H2O2-induced human SH-SY5Y cells assessed as increase in cell viability at 50 uM preincubated for 30 mins followed by H2O2 addition and measured after 24 hrs by SRB assay; assay type: functional, cell-based; conditions: time 24.5 hrs
[32] = tested on: SH-SY5Y; test: Antioxidant activity against human SH-SY5Y cells assessed as effect on intracellular ATP level at 50 uM incubated for 24 hrs followed by addition of oligomycin/FCCP/antimycin A /rotenone by Cell Mito stress assay based seahorse XF96 flux analyzer; assay type: functional

**Q.** Which viability at 24 h [1] does the source give for `CS(=O)(=O)[O-].O=C(/C=C/c1ccc(O)c(O)c1)NCCCCCCCCCC[n+]1ccc2ccccc2c1` here?
**A.** ≥ 85%

**Q.** What about the viability at 24 h [2] of the same compound?
**A.** ≥ 85%

**Q.** What about the Activity [3] of the same compound?
**A.** Non-Toxic

**Q.** What about the Activity [4] of the same compound?
**A.** Non-Toxic

**Q.** And the Activity [5]?
**A.** Non-Toxic

**Q.** And the pKa [6]?
**A.** 8.45

**Q.** What about the Drug uptake [7] of the same compound?
**A.** Not Active

**Q.** What about the Drug uptake [8] of the same compound?
**A.** ~ 25%

**Q.** And the Drug uptake [9]?
**A.** Active

**Q.** And the Activity [10]?
**A.** Active

**Q.** And the Activity [11]?
**A.** Active

**Q.** And the Activity [12]?
**A.** Active

**Q.** What about the Activity [13] of the same compound?
**A.** Active

**Q.** What about the Activity [14] of the same compound?
**A.** Active

**Q.** What about the Activity [15] of the same compound?
**A.** Active

**Q.** What about the Activity [16] of the same compound?
**A.** inactive

**Q.** What about the Activity [17] of the same compound?
**A.** 81.5%

**Q.** What about the Activity [18] of the same compound?
**A.** 86.8%

**Q.** What about the Activity [19] of the same compound?
**A.** Active

**Q.** What about the Activity [20] of the same compound?
**A.** Active

**Q.** And the Activity [21]?
**A.** Active

**Q.** What about the Activity [22] of the same compound?
**A.** Active

**Q.** And the Activity [23]?
**A.** Active

**Q.** And the Activity [24]?
**A.** Active

**Q.** And the Activity [25]?
**A.** 85.6%

**Q.** What about the Activity [26] of the same compound?
**A.** 89.7%

**Q.** And the Activity [27]?
**A.** 59.6%

**Q.** What about the Activity [28] of the same compound?
**A.** Active

**Q.** And the Activity [29]?
**A.** Active

**Q.** And the Activity [30]?
**A.** inactive

**Q.** And the Activity [31]?
**A.** inactive

**Q.** What about the Activity [32] of the same compound?
**A.** 87.9%
